Measured values: patent US10017475B2, “Anti-vasculature and anti-tubulin combretastatin analogs for treatment of cancer” (XAVIER UNIVERSITY OF LOUISIANA, priority 2014, dated 2018)
Like-named read-outs stand apart in the source and are kept apart here.

How the values were obtained:
HeLa = assay: Antiproliferative assay (resazurin, 72 h); assay type: cell-based, human; conditions: 72 h incubation, read-out: Growth Inhibition IC50 HeLa
Method: (§1) Cells were seeded in 96-well plates (5×10^3 cells/well) containing 50 μL growth medium for 24 hours. After medium removal, 100 μL fresh medium containing individual analog compound at different concentrations was added to each well and incubated at 37° C. for 72 h. […] After 72 h of incubation, 20 μL of resazurin was added for 2 h before recording fluorescence at 560 nm (excitation) and 590 nm (emission) using a Victor microtiter plate fluorimeter (Perkin-Elmer, USA).

MDA-MB-231 = assay: Antiproliferative assay (resazurin, 72 h); assay type: cell-based, human; conditions: MDA-MB-231, 72 h incubation, read-out: Growth Inhibition IC50 MDA-MB-231
Method: as §1

A549 = assay: Antiproliferative assay (resazurin, 72 h); assay type: cell-based, human; conditions: A549, 72 h incubation, read-out: Growth Inhibition IC50 A549
Method: as §1

| IC50 (HeLa; Homo sapiens, 72 h) [µM] | IC50 (MDA-MB-231; Homo sapiens, MDA-MB-231, 72 h) [µM] | IC50 (A549; Homo sapiens, A549, 72 h) [µM] | melting point | IC50 (HeLa) [µM] | IC50 (MDA-MB-231) [µM] | IC50 (A549) [µM] | Compound | IC50 (HeLa; Homo sapiens) [µM] | IC50 (MDA-MB-231; Homo sapiens) [µM] | IC50 (A549; Homo sapiens) [µM] |
| --- | --- | --- | --- | --- | --- | --- | --- | --- | --- | --- |
| 2 | 9 | > 100 | 156 to 158 °C |  |  |  | COc1ccc(-c2cccc(-c3ccc(OC)cc3)n2)cc1 [Compound 3d, 2,6-Bis(4-methoxyphenyl)pyridine] |  |  |  |
| 0.034 | 0.034 | 0.33 |  |  |  |  | COc1ccc(-c2cccc(-c3cc(OC)ccc3OC)n2)c(OC)c1 [Compound 4m, 2-(2,4-Dimethoxyphenyl)-6-(2,5-dimethoxyphenyl)pyridine] |  |  |  |
| > 50 | 13 | > 25 | 100 to 101 °C |  |  |  | COc1ccc(-c2cccc(-c3ccc(OC)c(OC)c3)n2)c(OC)c1 [Compound 4e, 2-(2,4-Dimethoxyphenyl)-6-(3,4-dimethoxyphenyl)pyridine] |  |  |  |
| > 50 | > 100 | > 100 | 155 to 156 °C |  |  |  | COc1ccc(-c2cccc(-c3c(OC)cccc3OC)n2)c(OC)c1 [Compound 4o, 2-(2,4-Dimethoxyphenyl)-6-(2,6-dimethoxyphenyl)pyridine] |  |  |  |
| 1 | 11 | > 50 |  |  |  |  | COc1cc(-c2cccc(-c3cc(OC)c(OC)c(OC)c3)n2)cc(OC)c1OC [Compound 3a, 2,6-Bis(3,4,5-trimethoxyphenyl)pyridine] |  |  |  |
| > 25 | > 50 | > 50 | 95 to 97 °C |  |  |  | COc1ccc(-c2ccnc(-c3ccc(OC)cc3OC)c2)c(OC)c1 [Compound 3h, 2,4-Bis(2,4-dimethoxyphenyl)pyridine] |  |  |  |
| > 50 | > 100 | > 100 | 124 to 125 °C |  |  |  | COc1ccc(-c2ccc(-c3ccc(OC)cc3OC)nc2)c(OC)c1 [Compound 3g, 2,5-Bis(2,4-dimethoxyphenyl)pyridine] |  |  |  |
| 2.68 | 11 | > 100 |  |  |  |  | COc1cc(-c2ccc(-c3cc(OC)c(OC)c(OC)c3)nc2)cc(OC)c1OC [Compound 3e, 2,5-Bis(3,4,5-trimethoxyphenyl)pyridine] |  |  |  |
| 2 | 10 | 2 | 99 to 100 °C |  |  |  | COc1ccc(-c2cccc(Br)n2)cc1 [Compound 2d, 2-Bromo-6-(4-methoxyphenyl)pyridine] |  |  |  |
| 0.026 | 2.49 | > 50 | 107 to 108 °C |  |  |  | COc1ccc(-c2cccc(-c3cc(OC)c(OC)c(OC)c3)n2)cc1OC [Compound 4c, 2-(3,4-Dimethoxyphenyl)-6-(3,4,5-trimethoxyphenyl)pyridine] |  |  |  |
| > 50 | > 25 | > 25 |  |  |  |  | COc1cc(OC)cc(-c2cccc(-c3ccc(OC)cc3OC)n2)c1 [Compound 4l, 2-(2,4-Dimethoxyphenyl)-6-(3,5-dimethoxyphenyl)pyridine] |  |  |  |
| 12 | 6 | 9 | 100 to 102 °C |  |  |  | COc1cc(-c2cccc(Br)n2)cc(OC)c1OC [Compound 2a, 2-Bromo-6-(3,4,5-trimethoxyphenyl)pyridine] |  |  |  |
| > 25 | > 25 | > 50 |  |  |  |  | COc1ccc(-c2cccc(-c3ccccc3OC)n2)c(OC)c1 [Compound 4r, 2-(2,4-Dimethoxyphenyl)-6-(2-methoxyphenyl)pyridine] |  |  |  |
| > 25 | > 50 | > 50 | 144 to 145 °C |  |  |  | COc1ccc(-c2cccc(-c3c(OC)cc(OC)cc3OC)n2)c(OC)c1 [Compound 4q, 2-(2,4-Dimethoxyphenyl)-6-(2,4,6-trimethoxyphenyl)pyridine] |  |  |  |
| > 100 | 17.2 | 4.22 | 112 to 114 °C (dec.) |  |  |  | COc1ccc(-c2cccc(-c3ccc(O)cc3)n2)c(OC)c1 [Compound 4k, 4-(6-(2,4-Dimethoxyphenyl)pyridine-2-yl)phenol] |  |  |  |
| > 25 | > 25 | > 25 |  |  |  |  | COc1ccc(-c2cccc(-c3ccc(OC)c(OC)c3)n2)cc1 [Compound 4d, 2-(3,4-Dimethoxyphenyl)-6-(4-methoxyphenyl)pyridine] |  |  |  |
|  |  |  |  |  |  |  | COc1cc(-c2ccnc(-c3cc(OC)c(OC)c(OC)c3)c2)cc(OC)c1OC [Compound 3f, 2,4-Bis(3,4,5-trimethoxyphenyl)pyridine] | 0.79 | 2.63 | 7.86 |
| > 50 | > 25 | > 50 | 112 to 114 °C |  |  |  | COc1ccc(-c2cccc(-c3cc(OC)c(OC)c(OC)c3)n2)cc1 [Compound 4f, 2-(4-Methoxyphenyl)-6-(3,4,5-trimethoxyphenyl)pyridine] |  |  |  |
| > 50 | > 25 | > 25 | 133 to 134 °C |  |  |  | COc1ccc(-c2cccc(-c3ccc(O)cc3)n2)cc1 [Compound 4j, 4-(6-(4-Methoxyphenyl)pyridine-2-yl)phenol] |  |  |  |
| 0.86 | > 50 | > 100 | 70 to 72 °C (dec.) |  |  |  | COc1ccc(-c2cccc(-c3ccc(O)cc3)n2)cc1OC [Compound 4b, 4-(6-(3,4-Dimethoxyphenyl)pyridin-2-yl)phenol] |  |  |  |
| > 50 | > 25 | > 25 |  |  |  |  | COc1ccc(-c2cccc(Br)n2)cc1OC [Compound 2b, 2-Bromo-6-(3,4-dimethoxyphenyl)pyridine] |  |  |  |
| 0.067 | 9.02 | 0.56 |  |  |  |  | COc1cccc(-c2cccc(-c3ccc(OC)cc3OC)n2)c1 [Compound 4p, 2-(2,4-Dimethoxyphenyl)-6-(3-methoxyphenyl)pyridine] |  |  |  |
| > 25 | > 50 | > 50 | 140 to 141 °C |  |  |  | COc1ccc(-c2cccc(-c3ccc(OC)c(OC)c3)n2)cc1OC [Compound 3b, 2,6-Bis(3,4-dimethoxyphenyl)pyridine] |  |  |  |
| 8 | 10 | > 25 | 92 to 94 °C (dec.) |  |  |  | COc1cc(-c2cccc(-c3ccc(O)cc3)n2)cc(OC)c1OC [Compound 4a, 4-(6-(3,4,5-Trimethoxyphenyl)pyridin-2-yl)phenol] |  |  |  |
| > 50 | > 100 | > 50 |  |  |  |  | COc1ccc(-c2cccc(Br)n2)c(OC)c1 [Compound 2c, 2-Bromo-6-(2,4-dimethoxyphenyl)pyridine] |  |  |  |
| 4.43 | > 100 | 0.69 | 115 to 117 °C |  |  |  | COc1ccc(-c2cccc(-c3cc(OC)c(OC)c(OC)c3)n2)c(OC)c1 [Compound 4g, 2-(2,4-Dimethoxyphenyl)-6-(3,4,5-trimethoxyphenyl)pyridine] |  |  |  |
| > 25 | > 50 | > 50 | 131 to 132 °C |  |  |  | COc1ccc(-c2ccc(-c3cc(OC)c(OC)c(OC)c3)nc2)cc1OC [Compound 4i, 5-(3,4-Dimethoxyphenyl)-2-(3,4,5-trimethoxyphenyl)pyridine] |  |  |  |
| > 25 | > 100 | > 100 |  |  |  |  | COc1ccc(-c2ccc(Br)cn2)c(OC)c1 [Compound 2f, 5-Bromo-2-(2,4-dimethoxyphenyl)pyridine] |  |  |  |
|  |  |  |  | 0.0026 | 0.0054 | 0.042 | COc1ccc(-c2cccc(-c3ccc(OC)c(O)c3)n2)c(OC)c1 [Compound 5, 2-(2,4-Dimethoxyphenyl)-6-(3-hydroxy-4-methoxyphenyl) pyridin-1-ium chloride] |  |  |  |
